Laboratory results published in US10828326B2, “Compositions and methods for treating and preventing venom related poisoning” (priority 2015, dated 2020).

Experiments:
[1] = tested on: Crotalus atrox venom-enhanced tissue-type plasminogen activator initiated fibrinolysis; experiment: Thrombelastography of human plasma pretreated with iron and/or CO before venom exposure in the presence of tPA (Example II); assay type: biochemical; conditions: 100 IU/ml tPA; for time to maximum rate of thrombus generation (TMRTG): 100 μM CORM-2
Protocol: Two hundred mg of lyophilized, pooled venom was obtained from four western diamondback rattlesnakes (Crotalus atrox) for experimentation. Venom was reconstituted in calcium-free phosphate buffered saline (PBS, Sigma-Aldrich, Saint Louis, Mo., USA) at a concentration of 20 mg/ml, aliquoted, and then stored at −80° C. until experimentation at the University of Arizona.
Pooled normal plasma (George King Bio-Medical, Overland Park, Kans., USA) anticoagulated with sodium citrate was rapidly thawed at 37° C. and used for experimentation. To assess the effects of pretreatment of antifibrinolytic plasma proteins with iron, CO, or both, 1% additions of PBS, ferric chloride (FeCl3, 99.9% pure, Sigma-Aldrich, Saint Louis, Mo., USA) in PBS, or CORM-2 (tricarbonyldichlororuthenium (II) dimer, a CO releasing molecule, Sigma-Aldrich, Saint Louis, Mo., USA) dissolved in dimethyl sulfoxide (DMSO, Sigma-Aldrich, Saint Louis, Mo., USA) were used. […] Plasma was exposed to these various agents for at least 5 min prior to incubations with venom.
The final volume for all subsequently described plasma sample mixtures was 359.4 μl. Sample composition consisted of […] of plasma; 10 μl of tissue factor reagent (0.1% final concentration in distilled water; Diagnostica Stago S.A.S., Asnieres sur Seine, France), 10 μl of tissue type plasminogen activator (tPA, 580 IU/μg, Genentech, Inc., San Francisco, Calif., USA; 100 IU/ml final concentration) and 3.4 μl of PBS or venom (final concentration 0.5-2.0 μg/ml). […] The aforementioned plasma and venom mixtures were placed in a disposable cup in a computer-controlled Thrombelastograph® hemostasis system (Model 5000, Haemoscope Corp., Niles, Ill., USA) and incubated for 5 min at 37° C., with addition of 20 μl of 200 mM CaCl2) as the last step to initiate clotting. Data were collected at 37° C. until clot lysis time (CLT) was observed. The following elastic modulus-based parameters previously described (see, Nielsen V G, Pretorius E. Blood Coagul Fibrinolysis 2014; 25:695-702) were determined: time to maximum rate of thrombus generation (TMRTG): this is the time interval (min) observed prior to maximum speed of clot growth; maximum rate of thrombus generation (MRTG): this is the maximum velocity of clot growth observed (dynes/cm^2/sec); total thrombus generation (TTG, dynes/cm^2), the final viscoelastic resistance observed after clot formation; time to maximum rate of lysis (TMRL, min), maximum rate of lysis (MRL, dynes/cm^2/sec) and CLT (min). Lastly, to assess if venom had thrombolytic properties that were tPA independent, n=4 replicates were performed wherein no tPA was added and data were collected for 3 h.
Data are presented as mean±SD. All conditions unless otherwise indicated were represented by n=8 replicates. This number of replicates reliably provides a statistical power>0.8 for P<0.05 (see, Nielsen V G, Pretorius E. Blood Coagul Fibrinolysis 2014; 25:695-702). A commercially available statistical program was used for two-way analysis of variance (ANOVA) to assess interactions of venom and tPA on coagulation kinetics and interactions of iron and CO on venom-enhanced fibrinolysis (SigmaStat 3.1, Systat Software, Inc., San Jose, Calif., USA). Additional one-way ANOVA followed by Holm-Sidak post hoc analyses were performed to assess differences between the conditions. Graphics depicting viscoelastic data were generated with a commercially available program (OrigenPro 7.5, OrigenLab Corporation, Northampton, Mass., USA).

[2] = tested on: C. atrox venom; experiment: Isolated venom exposure to FeCl3, CORM-2 or iCORM-2, then thrombelastography in human plasma (Example VI); assay type: biochemical, Crotalus atrox; conditions: in words
Protocol: C. atrox venom was obtained from the National Natural Toxins Research Center at Texas A&M University-Kingsville, Tex., USA. Venom was reconstituted in calcium-free phosphate buffered saline (PBS, Sigma-Aldrich, Saint Louis, Mo., USA), and stored at −80° C. Pooled human normal plasma anticoagulated with sodium citrate was obtained from George King Bio-Medical, Overland Park, Kans., USA. Ferric chloride (FeCl3, 99.9% pure), tricarbonyldichlororuthenium (II) dimer (CORM-2), and dimethyl sulfoxide (DMSO) were obtained from Sigma-Aldrich. The final concentrations of FeCl3 (dissolved in PBS) and CORM-2 (dissolved in DMSO) were 0-10 μM and 0-100 μM, respectively; these were the concentrations used in previous works involving the effects of modifying fibrinogen prior to venom exposure in plasma.
To increase the detection of effects of iron/CO on venom activity, the concentration of venom chosen for isolated exposure and for addition to plasma was twice the amount expected to eliminate coagulation based on previous work (see, Nielsen V G, Boyer L V. Iron and carbon monoxide attenuate degradation of plasmatic coagulation by Crotalus atrox venom. Blood Coagul Fibrinolysis. In press). A 1 ml quantity of a 200 μg/ml solution of venom in PBS was prepared for each condition subsequently presented. The conditions were: 1) 1% addition (v/v) of PBS and DMSO to PBS without venom; 2) 1% addition (v/v) of PBS and DMSO to PBS with venom; 3) 1% addition of FeCl3 and CORM-2 to PBS without venom; 4) 1% addition of FeCl3 and CORM-2 to PBS […]) 1% addition of FeCl3 and DMSO to PBS with venom; 6) 1% addition of CORM-2 to PBS with venom; and lastly, 7) 1% addition of PBS and iCORM-2 to PBS with venom. After 3 min of incubation at room temperature, 3.6 μl of solution from one of these conditions was placed into 326 μl of plasma and 10 μl of tissue factor reagent (0.1% final concentration in distilled water; Diagnostica Stago S.A.S., Asnieres sur Seine, France) in a disposable cup in a computer-controlled Thrombelastograph® hemostasis system (Model 5000, Haemonetics Inc., Braintree, Mass., USA). After test solution addition, 20 μl of 200 mM CaCl2 was immediately added to initiate clotting. Data were collected at 37° C. for 15 min. […] 2014; 25(8):801-805) were determined: time to maximum rate of thrombus generation (TMRTG): this is the time interval (min) observed prior to maximum speed of clot growth; maximum rate of thrombus generation (MRTG): this is the maximum velocity of clot growth observed (dynes/cm^2/sec); and total thrombus generation (TTG, dynes/cm^2), the final viscoelastic resistance observed after clot formation. […]

[3] = rabbit ear-bleed model; CORM-2 injected at 10 mg/kg (equivalent to 279 μM final concentration); cited from earlier work
[4] = tested on: human plasma; experiment: Thrombelastography of venom naïve human plasma with iron and/or CO addition (Example I); assay type: biochemical; conditions: baseline (venom naïve); 10 μM FeCl3 and/or 100 μM CORM-2; compared to plasma without any additions
Protocol: (§1) Two-hundred mg of lyophilized, pooled venom was obtained from four western diamondback rattlesnakes (Crotalus atrox) for experimentation. Venom was reconstituted in calcium-free phosphate buffered saline (PBS, Sigma-Aldrich, Saint Louis, Mo., USA) at a concentration of 20 mg/ml, aliquoted, and then stored at −80° C. until experimentation at the University of Arizona. Pooled human normal plasma (George King Bio-Medical, Overland Park, Kans., USA) anticoagulated with sodium citrate was rapidly thawed at 37° C. and used for experimentation. To assess the effects of pretreatment of fibrinogen with iron, CO, or both, 1% additions of PBS, ferric chloride (FeCl3, 99.9% pure, Sigma-Aldrich, Saint Louis, Mo., USA) in PBS, or CORM-2 (tricarbonyldichlororuthenium (II) dimer, a CO releasing molecule, Sigma-Aldrich, Saint Louis, Mo., USA) dissolved in dimethyl sulfoxide (DMSO, Sigma-Aldrich, Saint Louis, Mo., USA). The final concentrations of FeCl3 and CORM-2 were 10 μM and 100 μM, respectively; these concentrations are associated with nearly maximal augmenting effects on coagulation kinetics (see, Nielsen V G, et al., Blood Coagul Fibrinolysis 2014; 25:695-702). Plasma was exposed to these various agents for at least 5 min prior to incubations with venom.
(§2) The final volume for all subsequently described plasma sample mixtures was 359.4 μl. Sample composition consisted of 326 μl of plasma; 10 μl of tissue factor reagent (0.1% final concentration in distilled water; Diagnostica Stago S.A.S., Asnieres sur Seine, France) and 3.4 μl of PBS or venom (final concentration 0.5 μg/ml). […] The aforementioned plasma and venom mixtures were placed in a disposable cup in a computer-controlled Thrombelastograph® hemostasis system (Model 5000, Haemoscope Corp., Niles, Ill., USA) and incubated for 5 or 20 min at 37° C., with addition of 20 μl of 200 mM CaCl2) as the last step to initiate clotting. Data were collected at 37° C. for 15 min after 5 min of incubation, whereas samples incubated with venom for 20 min had data collected for 30 min, given the prolonged onset of coagulation and diminished rate of thrombus formation. The following elastic modulus-based parameters previously described (see, Nielsen, et al., 2014, Blood Coagul. Fibrinolysis 25:695-702; Nielsen, et al., 2011, Blood Coagul. Fibrinolysis 22: 443-447); Nielsen V G, et al., Blood Coagul Fibrinolysis 2014; 25:845-850) were determined: time to maximum rate of thrombus generation (TMRTG): this is the time interval (min) observed prior to maximum speed of clot growth; maximum rate of thrombus generation (MRTG): this is the maximum velocity of clot growth observed (dynes/cm^2/sec); and total thrombus generation (TTG, dynes/cm^2), the final viscoelastic resistance observed after clot formation.
(§3) Data are presented as mean+SD. A commercially available statistical program was used for one-way analysis of variance followed by Holm-Sidak post hoc analyses (SigmaStat 3.1, Systat Software, Inc., San Jose, Calif., USA). Graphics depicting viscoelastic data were generated with a commercially available program (OrigenPro 7.5, OrigenLab Corporation, Northampton, Mass., USA; CorelDRAW12, Corel Corporation, Mountain View, Calif., USA).

[5] = tested on: Crotalus atrox venom; experiment: Thrombelastography of human plasma pretreated with iron and/or CO, then incubated with Crotalus atrox venom (Example I); assay type: biochemical; conditions: 0.5 μg/ml venom, 5 min incubation
Protocol: as §1, §2, §3

[6] = 10 μM ferric chloride or 100 μM CORM-2, vs matched samples without or with venom exposure (0.5 μg/ml)

Molecule: [C-]#[O+].[C-]#[O+].[C-]#[O+].[C-]#[O+].[C-]#[O+].[C-]#[O+].[Cl][Ru][Cl].[Cl][Ru][Cl] [CORM-2, tricarbonyldichlororuthenium (II) dimer]
- maximum rate of lysis (MRL) ([1]; 100 μM CORM-2 addition followed by venom exposure (0.5 μg/ml)): reduced MRL to control values
- maximum rate of lysis (MRL) ([1]; 100 μM CORM-2 addition, without venom): significantly increased
- effects on C. atrox venom activity on plasmatic coagulation ([2]; isolated venom exposure): completely inhibited
- coagulation kinetic parameters of plasma after addition of PBS with venom exposed to the agent ([2]; venom 2 μg/ml final, 10 μM FeCl3, 100 μM CORM-2 or iCORM-2): not different from PBS/DMSO exposed plasma
- adverse effects [3]: without adverse effects noted

Molecule: tricarbonyldichlororuthenium (II) dimer [CORM-2]
- maximum rate of thrombus generation (MRTG) [4]: significant increase
- time to maximum rate of thrombus generation (TMRTG) [4]: no change
- total thrombus generation (TTG) [4]: significant increase
- maximum rate of thrombus generation (MRTG), change on venom exposure ([5]; vs matched venom naïve samples): significantly decreased
- maximum rate of thrombus generation (MRTG) ([5]; vs plasma without additions exposed to venom): significantly greater
- clot strength (TTG) ([5]; vs samples without CO added): significantly greater
- clot lysis time (CLT) [1, 6]: significantly greater
- maximum rate of thrombus generation (MRTG) [1, 6]: significantly greater
- time to maximum rate of lysis (TMRL) [1, 6]: significantly greater
- total thrombus generation (TTG) [1, 6]: greater
- time to maximum rate of thrombus generation (TMRTG) ([1]; venom exposed plasma (0.5 μg/ml)): significantly less
- time to maximum rate of thrombus generation (TMRTG) ([1]; venom naïve samples): did not significantly affect
